{
  "source": "patent US9522151B2",
  "about": "“Dosing regimen for Janus Kinase (JAK) inhibitors” (priority 2012, dated 2016)",
  "key": {"laboratory dogs": {"tested_on": "laboratory dogs", "experiment": "High dose BID safety study in 6 month old laboratory dogs", "assay_type": "in vivo, dog", "protocol": "A high dose (3 mg/kg BID) was given to 6 month old laboratory dogs."}, "[1]": {"conditions": "dog, in vivo"}, "[2]": {"tested_on": "the IL-10 family, the IL-12 family (that share the p40 subunit), or the IL-3 family", "experiment": "Inhibition of IL-10, IL-12 and IL-3 family cytokines", "assay_type": "cell-based"}, "[3]": {"conditions": "dog, in vivo", "protocol": "All doses are expressed in terms of mg/kg of free base. Serial blood samples for determination of pharmacokinetics were collected following Compound 1 administration. Blood samples at 0, 1, 4, 8, and 12 hours post dose were collected via jugular venipuncture into K2EDTA tubes and placed on ice until centrifuged. Harvested plasma was stored at approximately −20° C. until analysis.\nThirty-two beagle dogs (16 female, 16 male) were allocated to four treatment groups. Dogs in Treatment 1 received placebo capsule (0 mg/kg) orally. […] All dogs received a twice daily doses 0, 0.6, 1.8, and 3.0 mg/kg for weeks 1 through 6 and a single daily doses of 0, 0.6, 1.8, and 3.0 mg/kg for weeks 7 through 26. On pharmacokinetic sample collection days, dogs were fasted the previous night and fed four hours post dose administration. To calculate AUC0-24 for study days 53 and 168, steady-state was assumed and the 24 hour concentration was assumed to be equal to the 0 hour concentration, and used for the 0 hour concentration. As the actual doses of Compound 1 varied from the group target doses, the pharmacokinetic variables AUC0-τ, (AUC of the dosing interval), Cmax, and Cτ (trough concentration) were all normalized to the group target dose.", "remark": "listed apart in the source"}, "[4]": {"tested_on": "cytokines that are exclusively dependent on JAK2 function (EPO, GM-CSF)", "experiment": "Inhibition of cytokines exclusively dependent on JAK2", "assay_type": "cell-based", "conditions": "ratio of IC50's"}, "[5]": {"tested_on": "JAK-1 dependent cytokines (e.g. IL-2, IL-4, IL-6, IL-13, and IL-31)", "experiment": "Inhibition of JAK-1 dependent cytokines", "assay_type": "cell-based"}, "[6]": {"tested_on": "dogs with chronic non-seasonal atopic dermatitis", "experiment": "Atopic Dermatitis Dose Selection Study", "assay_type": "in vivo, dog", "conditions": "oral", "source_text": "(§1) Minimum CADESI scores were assigned by a dermatologist or veterinarian (CADESI-01 score of 25 or CADESI-3 score of 60). Dogs were either 1 year of age or 6 months of age or older and weighed a minimum of 3 kg and were physically healthy apart from their atopic disease. The dogs had at least a 1 year or 6 month documented history of chronic non-seasonal atopic dermatitis. The dogs were flea free and appropriate preventatives and treatments were used throughout the study."}, "[7]": {"tested_on": "dogs with moderate to severe itching (pruritus)", "experiment": "Pruritus Study A (placebo controlled)", "assay_type": "in vivo, dog", "source_text": "(§2) Investigators attributed pruritus to one or more of the following: allergic dermatitis, atopic dermatitis, food allergy, contact allergy, flea allergy, sarcoptic mange. Dogs were six months of age or older, weighed a minimum of 3 kg and were physically healthy apart from their pruritic condition. Dogs were flea-free, and appropriate preventatives and treatments were used throughout the studies. The studies were designed as follows in Table 2 and Table 3."}, "in vitro": {"experiment": "in vitro", "conditions": "human, Caco-2", "source_text": "The in vitro permeability of Compound 1 was experimentally determined in a Caco-2 cell monolayer study. […] The dog gastric pH has been reported to range from 1.08 to 2.0 (Sagawa, Li et al. 2009; Mahar, Portelli et al. 2012)."}, "[8]": {"tested_on": "client owned dogs with a history of chronic atopic dermatitis", "experiment": "Study in client owned dogs with chronic atopic dermatitis (Table 1)", "assay_type": "in vivo, dog", "conditions": "0.19-0.39 mg/kg BID oral for 28 days; Day 1, 14 and 28", "protocol": "A study was conducted in client owned dogs. Fifty-six dogs, greater than 1 year of age, weighing 2-50 kg, with a history of chronic atopic dermatitis were enrolled at three veterinary schools. The study design is illustrated in the following Table 1: […]"}, "physchem": {"experiment": "physchem", "conditions": "pH 3.8"}, "[9]": {"experiment": "Other pharmacokinetic studies in dogs (IV and PO)", "conditions": "for bioavailability: po"}, "[10]": {"tested_on": "cytokine receptors that share the common gamma chain (e.g. IL-2R, IL-4R)", "experiment": "Inhibition of cytokine function, common gamma chain receptors", "assay_type": "cell-based", "conditions": "read-out: IC50's of representative family members"}, "[11]": {"tested_on": "cytokine receptors that share the gp130 subunit (e.g. IL-6) as well as IL-13", "experiment": "Inhibition of gp130 subunit cytokine receptors and IL-13", "assay_type": "cell-based"}, "[12]": {"conditions": "pH 5.5"}, "[13]": {"tested_on": "dogs with moderate to severe itching (pruritus)", "experiment": "Pruritus Study B (prednisolone controlled)", "assay_type": "in vivo, dog", "conditions": "day 14; oral BID for 14 days (prednisolone 0.25-0.5 mg/kg, compound 1 0.4-0.6 mg/kg); time zero about 75 mm", "source_text": "as §2"}, "[14]": {"tested_on": "client-owned dogs with chronic non-seasonal atopic dermatitis", "assay_type": "in vivo", "conditions": "0.4-0.6 mg/kg BID oral", "source_text": "as §1\nIn these studies, animals were administered from 0.4-0.6 mg/kg body weight of a JAK inhibitor BID for up to 112 days."}, "laboratory-bred dogs": {"tested_on": "laboratory-bred dogs", "protocol": "A target animal safety program (8 studies) was conducted. 131 laboratory-bred dogs were exposed to N-methyl-1-{trans-4-[methyl(7H-pyrrolo[2,3-d]pyrimidin-4-yl)amino]cyclohexyl}methanesulfonamide maleate (i.e. N-methyl-1-{trans-4-[methyl(7H-pyrrolo[2,3-d]pyrimidin-4-yl)amino]cyclohexyl}methanesulfonamide maleic acid salt maleic acid salt). Doses ranged from 0.5 mg/kg/day (0.25 mg/kg BID) to 18 mg/kg/day (9 mg/kg BID). Duration of exposure ranged from 10 days to 6 months. Recovery periods were incorporated into two studies. A series of early studies were designed to ensure the safety of client-owned dogs in the field safety and efficacy studies.\nIn a “margin of safety” study, the following treatments were given: […]"}, "IL-12 and IL-23": {"tested_on": "IL-12 and IL-23", "experiment": "Inhibition of cytokines that utilize JAK2/TYK2 and not JAK1", "assay_type": "cell-based"}},
  "note": "“And” between values parts separate entries of the source, which are not always exact repeats. Equal entries are not always repeated. Where two headings read alike, the source gives them in different places.",
  "data": [
    {"smiles": "CNS(=O)(=O)C[C@H]1CC[C@H](N(C)c2ncnc3[nH]ccc23)CC1.O=C(O)/C=C\\C(=O)O", "note": "[Compound 1, N-methyl-1-{trans-4-[methyl(7H-pyrrolo[2,3-d]pyrimidin-4-yl)amino]cyclohexyl}methanesulfonamide maleate]", "values": [
      {"measurement": "effects observed", "setting": "laboratory dogs; 0.6 mg/kg BID group", "result": "few effects"},
      {"measurement": "dogs with clinical signs of integument (demodex)", "setting": "laboratory dogs; 3 mg/kg BID, 6 month old laboratory dogs", "result": "7/8"},
      {"measurement": "impact of breed on pharmacokinetic profile", "setting": "[1]", "result": "breed does not impact the pharmacokinetic profile"},
      {"measurement": "inhibition of cytokines", "setting": "[2]", "result": "it does not appear that compound 1 inhibits"},
      {"measurement": "increase in mean AUC0-12 from Day 0 to Day 21", "setting": "[3]; both, beagle, po", "result": 40, "unit": "%"},
      {"measurement": "male/female differences in pharmacokinetic parameters", "setting": "[3]", "result": "there did not appear to be any systematic male/female differences"},
      {"measurement": "increase in AUC0-12 and Cmax with dose", "setting": "[3]; po, 3 mg/kg", "result": "dose proportional from 0.6 to 3.0 mg/kg"},
      {"measurement": "fold less potent than the JAK1-dependent cytokines (IL-2, 4, 6, 13, and 31)", "setting": "[4]", "result": "4-17 fold"},
      {"measurement": "IC50", "setting": "[5]", "result": "< 249 nM and < 0.084 µg/mL"},
      {"measurement": "Investigator CADESI score over 112 days, order of treatment groups from highest to lowest", "setting": "[6]", "result": "T01 (placebo), T04 (0.2-0.3 mg/kg SID compound 1), T03 (0.4-0.6 mg/kg SID compound 1), and T02 (0.4-0.6 mg/kg BID for 14 days followed by 0.4-0.6 mg/kg SID thereafter)"},
      {"measurement": "owner VAS scores by day compared to placebo (T01)", "setting": "[7]; 0.4-0.6 mg/kg BID oral for 7 days", "result": "lower each day starting on day 1"},
      {"measurement": "LS mean owner VAS score", "setting": "[7]; day 7, 0.4-0.6 mg/kg BID oral, time zero about 75 mm, placebo about 55 mm", "result": "about 25 mm"},
      {"measurement": "Papp", "setting": "in vitro", "result": 40.4, "unit": "×10⁻⁶ cm/s"},
      {"measurement": "reduction in owner assessed VAS pruritus scores compared with placebo", "setting": "[8]", "result": "significantly (p≦0.07) different"},
      {"measurement": "solubility", "setting": "physchem", "result": 10.4, "unit": "mg/mL"},
      {"measurement": "calculated fraction absorbed", "setting": "[9]; based on bioavailability 85%, clearance 4 mL/min/kg, blood flow 40 mL/min/kg", "result": "greater than 0.9"},
      {"measurement": "half-life", "setting": "[9]; dog, plasma", "result": 4, "unit": "h"},
      {"measurement": "clearance", "setting": "[9]; dog, plasma, intravenous", "result": 4, "unit": "mL/min/kg"},
      {"measurement": "bioavailability", "setting": "[9]; dog, plasma, absolute oral bioavailability, mean range, dogs", "result": "79 to 89", "unit": "%"},
      {"measurement": "bioavailability", "setting": "[9]; dog, plasma, bioavailability, value used to calculate fraction absorbed", "result": 85, "unit": "%"},
      {"measurement": "volume of distribution", "setting": "[9]; dogs", "result": "moderate volume of distribution"},
      {"measurement": "time of mean maximum plasma concentrations post dose", "setting": "[9]; oral administration, dogs", "result": "approximately 1 hour"},
      {"measurement": "IC50", "setting": "[10]", "result": "63 nM to 249 nM and 0.021 µg/mL to 0.084 µg/mL"},
      {"measurement": "inhibition of cytokine receptor function", "setting": "[11]", "result": "inhibits the function"},
      {"measurement": "solubility", "setting": "[12]", "result": "practically insoluble"},
      {"measurement": "LS mean owner VAS score", "setting": "[13]", "result": "about 18 mm"},
      {"measurement": "efficacy for the control of atopic dermatitis including pruritus", "setting": "[14]", "result": "excellent efficacy"},
      {"measurement": "significant decreases in red blood cell parameters outside normal laboratory reference ranges", "setting": "laboratory-bred dogs; 0.6 mg/kg dose", "result": "not detected"},
      {"measurement": "deaths or other serious adverse events", "setting": "laboratory-bred dogs; 0.6, 1.8 or 3.0 mg/kg oral, BID weeks 1-6 then SID weeks 7-26", "result": "no observed deaths or other serious adverse events"},
      {"measurement": "IC50", "setting": "IL-12 and IL-23", "result": "> 3000", "unit": "nM"}
    ]},
    {"smiles": "C[C@]12C=CC(=O)C=C1CC[C@@H]1[C@@H]2[C@@H](O)C[C@@]2(C)[C@H]1CC[C@]2(O)C(=O)CO", "note": "[prednisolone, Prednisolone, reference compound]", "values": [
      {"measurement": "LS mean owner VAS score", "setting": "[13]", "result": "about 10 mm"}
    ]}
  ]
}
